Values of other authors, collected in US6416793B1, “Formulations and use of controlled-release indole alkaloids” (BioResponse, L.L.C., priority 2000, dated 2002).
Structures can show the parent of a compound that is named as a salt.

How the values were obtained:
[1] = tested on: diet-restricted animals
[2] = tested on: humans
[3] = tested on: overweight men; conditions: 16.2 to 43.2 mg/day, six month period
[4] = tableted preparations of pure yohimbine
[5] = tested on: dogs; conditions: 0.4 mg/kg/day
[6] = tested on: obese and non-obese women; conditions: in vivo
[7] = tested on: overweight female subjects; conditions: three weeks

Molecule: O=C(O[C@@H]1Cc2c(O)cc(O)cc2O[C@@H]1c1cc(O)c(O)c(O)c1)c1cc(O)c(O)c(O)c1 [epigallocatechin gallate (EGCG), epigallocatechin gallate]
- rate of weight loss [1]: increase the rate of weight loss in diet-restricted animals
- resting energy expenditure [2]: increase resting energy expenditure in humans

Molecule: COC(=O)[C@@H]1[C@H]2C[C@H]3c4[nH]c5ccccc5c4CCN3C[C@@H]2CC[C@@H]1O [yohimbine Hcl, (16 alpha, 17 alpha)-17-hydroxyyohimban-16-carboxylic acidmethyl ester hydrochloride]
- additional weight loss versus placebo [3]: failed to show advantage in additional weight loss over placebo

Molecule: COC(=O)[C@@H]1[C@H]2C[C@H]3c4[nH]c5ccccc5c4CCN3C[C@@H]2CC[C@@H]1O [yohimbine]
- plasma half life [4]: less than 1 hour

Molecule: yohimbine
- body weight [5]: rapid loss of body weight
- daily food intake ([5]; rapidly absorbed pure yohimbine): dramatic reduction in daily food intake
- circulating levels of norepinephrine [6]: increase circulating levels of norepinephrine
- continued weight loss versus placebo ([7]; 5 mg 4 times per day (20 mg/day), weight loss diet): Significantly greater continued weight loss
- energy expenditure during exercise ([7]; 20 mg/day): greater energy expenditure in the treated group during exercise
